Legend:
[1] = Measurement of absorbance and fluorescence of synthesized compound in ethanol; assay type: physicochemical; settings: 10 μM in ethanol; for λem: Maximum emission wavelength / λex: Maximum excitation wavelength: average of three measurements; for Stokes shift: difference between excitation and emission
Description: In order to investigate the optical properties of the newly synthesized compound in the present invention, the absorbance was measured using a V-730 UV-visible spectrophotometer manufactured by JASCO, and fluorescence was measured using a FlexStation 3 multi-mode microplate reader manufactured by Molecular Devices. Absorbance and fluorescence were measured three times at a concentration of 10 μM in ethanol, and the average thereof is shown in Table 1 below. At this time, T807 (AV-1451) as a Tau positron-emission-tomography (PET) tracer and Thioflavin S, which are commercially available to detect tau production in vivo, were used as a control group.

[2] = biological target: T1, amyloid beta aggregates (Abeta40) (Homo sapiens, UniProt P05067); assay: In vitro binding assay (fluorescence labeling ability) to amyloid beta aggregates; settings: compound 10 μM, PBS, 30 min incubation
T1 construct: the synthesized Abeta40 (Amyloid Beta 40) peptide was dissolved in PBS; host or cells: synthetic peptide
T1 sequence (P05067 672-711 limits assumed): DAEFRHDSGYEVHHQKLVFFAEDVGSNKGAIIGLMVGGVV
Description: (§1) Experimental Example 2-1: Tau and amyloid beta aggregation induction For amyloid aggregation induction, the synthesized Abeta40 (Amyloid Beta 40) peptide was dissolved in PBS at a concentration of 0.5 mg/ml to induce aggregation for 7 days at 37° C. and 200 rpm with shaking. To induce aggregation of tau proteins, aggregation of Tau-K18 protein (0.5 mg/ml in PBS) purified and isolated from E. coli with heparin (0.1 mg/ml) and DTT (100 μM) was induced at 37° C. and 200 rpm for 7 days under shaking conditions. […] At this time, thioflavin S (Th S), which is known to bind to beta-sheet structures such as tau and amyloid aggregates, was used as a control group (Ex: 430 nm, Em: 480-610 nm). Specifically, in order to determine the labeling ability of newly synthesized compounds to tau aggregate proteins, a 25 μl dilution of a 10 μM labeling substance in PBS and 25 id of a 0.125 mg/ml tau or amyloid pre-aggregate or aggregate diluted in PBS were each incubated for 30 minutes, and then a fluorescence spectrum reaction was measured using a spectrophotometer. Selectivity analysis for tau aggregates and amyloid beta aggregates of the novel synthetic compounds of the present invention was performed as described above, and the resulting in vitro fluorescence changes are summarized in Table 2 and FIG. 1 below.

[3] = biological target: T2, tau aggregates (Tau-K18 protein) (Homo sapiens, UniProt P10636); assay: In vitro binding assay (fluorescence labeling ability) to tau aggregates; settings: for SIaβ: selectivity index = fluorescence intensity of probe bound to Tau aggregate / bound to Aβ aggregate / SItaumono: selectivity index, tau aggregate versus tau monomer / FItau: fold increase = fluorescence intensity of probe bound to tau aggregate / probe (free): compound 10 μM; for FItau: fold increase = fluorescence intensity of probe bound to tau aggregate / probe (free): PBS, 30 min incubation; for selectivity for tau aggregates over amyloid aggregates: in vitro screening as fluorescent probes
T2 construct: aggregation of Tau-K18 protein (0.5 mg/ml in PBS) purified and isolated from E. coli; made in house; host or cells: E. coli
T2 sequence (P10636 561-685 limits assumed): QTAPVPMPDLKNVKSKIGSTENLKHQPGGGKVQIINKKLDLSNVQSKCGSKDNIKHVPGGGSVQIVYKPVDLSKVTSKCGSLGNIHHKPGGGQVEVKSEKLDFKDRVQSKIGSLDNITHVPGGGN
Description: as §1

[4] = biological target: bovine serum albumin (BSA) (Bos taurus, UniProt P02769); assay: Measurement of non-specific binding using BSA; settings: for FIBSA: fold increase = fluorescence intensity of probe bound to BSA / probe (free): compound 10 μM, 0.25 mg/ml BSA, 30 min incubation
bovine serum albumin (BSA), sequence (P02769 25-607): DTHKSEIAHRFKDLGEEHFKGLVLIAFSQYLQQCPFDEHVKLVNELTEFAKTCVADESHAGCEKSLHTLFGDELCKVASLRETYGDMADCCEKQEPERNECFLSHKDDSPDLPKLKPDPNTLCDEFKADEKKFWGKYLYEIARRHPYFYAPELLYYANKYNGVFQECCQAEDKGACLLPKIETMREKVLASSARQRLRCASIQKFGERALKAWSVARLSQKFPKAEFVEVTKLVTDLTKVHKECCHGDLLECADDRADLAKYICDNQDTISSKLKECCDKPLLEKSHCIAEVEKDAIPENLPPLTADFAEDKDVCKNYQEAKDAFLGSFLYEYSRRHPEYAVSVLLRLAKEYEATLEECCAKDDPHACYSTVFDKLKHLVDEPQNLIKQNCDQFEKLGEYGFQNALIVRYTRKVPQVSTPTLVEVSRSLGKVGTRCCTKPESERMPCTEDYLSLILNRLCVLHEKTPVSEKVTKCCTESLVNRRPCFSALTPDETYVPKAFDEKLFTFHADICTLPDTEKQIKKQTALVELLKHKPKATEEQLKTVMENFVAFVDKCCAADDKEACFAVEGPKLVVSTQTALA
Description: In order to exclude non-specific binding of the compound to serum, reactivity between the compound and bovine serum albumin (BSA) was further tested. 25 μl of a 10 μM compound was incubated along with 25 μl of 0.25 mg/ml BSA for 30 minutes, and then the fluorescence spectrum reaction was measured using a spectrophotometer. The BSA response was conducted to identify non-selective binding to other proteins in the blood when applied to patients as an imaging agent.

| Compound | λem: Maximum emission wavelength [1] | λex: Maximum excitation wavelength [1] | Stokes shift [1] | FIAβ: fold increase = fluorescence intensity of probe bound to Aβ aggregate / probe (free) [2] | SIaβ: selectivity index = fluorescence intensity of probe bound to Tau aggregate / bound to Aβ aggregate [3] | SItaumono: selectivity index, tau aggregate versus tau monomer [3] | FItau: fold increase = fluorescence intensity of probe bound to tau aggregate / probe (free) [3] | FIBSA: fold increase = fluorescence intensity of probe bound to BSA / probe (free) [4] | selectivity for tau aggregates over amyloid aggregates [3] | reactivity to BSA ([4]; in words) |
| --- | --- | --- | --- | --- | --- | --- | --- | --- | --- | --- |
| CNc1ccc(/C=C/C=C/C(=O)c2ccc3cc(OC)ccc3n2)cc1 [Compound 16b, (2E,4E)-1-(6-methoxyquinolin-2-yl)-5-(4-(methylamino)phenyl)penta-2,4-dien-1-one] | 714 nm | 475 nm | 239 nm | 9.45 | 1.0 | 2.1 | 9.22 | 56.71 | – | – |
| COc1ccc2nc(/C=C/C=C/c3cccc([N+](=O)[O-])c3)ccc2c1 [Compound 15g, 6-methoxy-2-((1E,3E)-4-(3-nitrophenyl)buta-1,3-dien-1-yl)quinolone] | 452 nm | 361 nm | 91 nm | 0.58 | 5.8 | 3.7 | 3.42 | 1.33 | 5.8 times | – |
| Nc1ccc(C(=O)/C=C/c2ccc3cc(O)ccc3n2)cc1 [Compound 13c, (E)-1-(4-aminophenyl)-3-(6-hydroxyquinolin-2-yl)prop-2-en-1-one] | 570 nm | 378 nm | 192 nm | 1.67 | 2.8 | 3.2 | 4.63 | 1.72 | – | – |
| COc1ccc2nc(/C=C/C=C/c3ccc(N(C)C)cc3)ccc2c1 [Compound 15c, 4-((1E,3E)-4-(6-methoxyquinolin-2-yl)buta-1,3-dien-1-yl)-N,N-dimethylaniline] | 600 nm | 399 nm | 201 nm | 0.18 | 1.2 | 3.9 | 0.81 | 0.19 | – | – |
| Thioflavin S [reference compound] | 451 nm | 347 nm | 104 nm | 19.95 | 0.8 | 4.3 | 15.32 | 7.133 | – | high reactivity |
| COc1ccc2nc(C(=O)/C=C/C=C/c3ccc(N(C)C)nc3)ccc2c1 [Compound 16d, (2E,4E)-5-(6-(dimethylamino)pyridin-3-yl)-1-(6-methoxyquinolin-2-yl)penta-2,4-dien-1-one] | 637 nm | 425 nm | 212 nm | 1.10 | 3.5 | 3.9 | 3.82 | 1.26 | 3.5 times | – |
| COc1ccc2nc(C(=O)/C=C/C=C/c3ccc(N(C)C)cc3)ccc2c1 [Compound 16c, (2E,4E)-5-(4-(dimethylamino)phenyl)-1-(6-methoxyquinolin-2-yl)penta-2,4-dien-1-one] | 678 nm | 450 nm | 228 nm | 1.43 | 1.2 | 1.7 | 1.71 | 1.29 | – | – |
| COc1ccc2nc(/C=C/C(=O)c3ccc(Br)cc3)ccc2c1 [Compound 13e, (E)-1-(4-bromophenyl)-3-(6-methoxyquinolin-2-yl)prop-2-en-1-one] | 415 nm | 314 nm | 101 nm | 1.37 | 3.8 | 2.2 | 5.18 | 1.39 | 3.8 times | – |
| COc1ccc2nc(C(=O)/C=C/C=C/c3ccc(N(C)CCO)cc3)ccc2c1 [Compound 16e] | 658 nm | 436 nm | 222 nm | 1.55 | 2.5 | 3.0 | 3.90 | 1.59 | – | – |
| CNc1ccc(/C=C/C=C/c2ccc3cc(OC)ccc3n2)cc1 [Compound 15b, 4-((1E,3E)-4-(6-methoxyquinolin-2-yl)buta-1,3-dien-1-yl)-N-methylanaline] | 602 nm | 400 nm | 202 nm | 0.32 | 2.0 | 3.6 | 0.63 | 0.26 | – | – |
| COc1ccc2nc(/C=C/C=C/c3ccc(F)cc3F)ccc2c1 [Compound 15h, 6-methoxy-2-((1E,3E)-4-(2.4-difluorophenyl)buta-1,3-dien-1-yl)quinolone] | 415 nm | 360 nm | 55 nm | 1.56 | 1.5 | 2.8 | 2.35 | 0.70 | – | – |
| COc1ccc2nc(/C=C/C=C/c3ccc([N+](=O)[O-])nc3)ccc2c1 [Compound 15e, 6-methoxy-2-((1E,3E)-4-(6-nitropyridin-3-yl)buta-1,3-dien-1-yl)quinolone] | 587 nm | 389 nm | 198 nm | 0.44 | 2.2 | 4.5 | 0.95 | 0.17 | – | – |
| Fc1ccc(-c2ccc3c(c2)[nH]c2ccncc23)cn1 [Compound T807, reference compound] | 369 nm | 304 nm | 65 nm | – | – | – | – | – | – | – |
